Where two headings read alike, the source gives them in different places.
What was measured:
Corticium sasakii = details: rice cultivar Tai-Nong 67, protective spray, evaluated after 11 days
Procedure: (§1) 1% by weight of the emulsifier Uniperol® EL (wetting agent having emulsifying and dispersant action based on ethoxylated alkylphenols) was added to this solution, and the mixture was diluted with water to the desired concentration.
(§2) Evaluation is carried out by determining the infected leaf areas in percent. These percentages were converted into efficacies.
(§3) The efficacy (E) is calculated as follows using Abbot's formula:
(§4) α corresponds to the fungicidal infection of the treated plants in % and β corresponds to the fungicidal infection of the untreated (control) plants in %
(§5) An efficacy of 0 means that the infection level of the treated plants corresponds to that of the untreated control plants; an efficacy of 100 means that the treated plants are not infected.
The next day, oat grains infected with Corticium sasakii were placed into the pots (in each case 5 grains per pot). The plants were then placed in a chamber at 26° C. and maximum atmospheric humidity.

Plasmopara viticola = assay: Activity against Peronospora of grapevines caused by Plasmopara viticola; details: vines cultivar Riesling, protective spray
Procedure: as §1, §2, §3, §4, §5
The next day, the undersides of the leaves were inoculated with an aqueous zoospore suspension of Plasmopara viticola. The grapevines were then initially placed in a water-vapor-saturated chamber at 24° C. for 48 hours and then in a greenhouse at 20-30° C. for 5 days. After this period of time, the plants were again placed in a humid chamber for 16 hours to promote sporangiophore eruption. The extent of the development of the disease on the undersides of the leaves was then determined visually.

Structure (SMILES): CC1CCN(c2c(-c3c(F)cc(F)cc3F)c(Cl)nc3ncnn23)CC1 [I, 5-chloro-7-(4-methylpiperidin-1-yl)-6-(2,4,6-trifluorophenyl)-[1,2,4]triazolo[1,5-a]pyrimidine]
- Efficacy in % of the untreated control (Corticium sasakii; 4 ppm in the spray liquor): 30%
- Efficacy in % of the untreated control (Plasmopara viticola; 4 ppm in the spray liquor): 21%
- Efficacy in % of the untreated control (Plasmopara viticola; 16 ppm in the spray liquor): 44%

Structure (SMILES): CO/N=C(/C1=NOCCO1)c1ccccc1Oc1ncnc(Oc2ccccc2Cl)c1F [II (fluoxastrobin), {2-[6-(2-chlorophenoxy)-5-fluoropyrimidin-4-yloxy]phenyl}-(5,6-dihydro-[1,4,2]dioxazin-3-yl)methanon O-methyl oxime]
- Efficacy in % of the untreated control (Corticium sasakii; 1 ppm in the spray liquor): 0%
- Efficacy in % of the untreated control (Corticium sasakii; 16 ppm in the spray liquor): 18%
- Efficacy in % of the untreated control (Plasmopara viticola; 4 ppm in the spray liquor): 21%
- Efficacy in % of the untreated control (Plasmopara viticola; 16 ppm in the spray liquor): 55%
